Molecules are shown by their SMILES. Values joined by “and” are separate entries in the source; they are usually repeats but may differ in a detail not shown here. Equal entries are not always repeated. Structures can show the parent of a compound that is named as a salt. Toxic doses and inconclusive results are not listed. Peptide text beside a SMILES is read from it. * marks the point of attachment. Tfa = O=C(C(F)(F)F)*

In this experiment the test system is P388 leukemia ip, CD2F1 mice, survival T/C. Kind of experiment: NCI In Vivo Anticancer Drug Screen. Data for tumor model P388 Leukemia (intraperitoneal) in CD2F1 (CDF1) mice. To be noted: endpoint: median survival time, higher = longer survival. Put shortly:
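Mice carrying the transplanted tumor received test compound or vehicle. Survival was recorded in each group, and the value is the treated-group measurement divided by that of the vehicle-treated control group.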

The mark [1] stands for this setting: dose: 50.0 mg/kg/injection, schedule: Q01DX009 (ip), vehicle: saline with Tween-80.
The mark [2] stands for this setting: dose: 100.0 mg/kg/injection, schedule: Q01DX009 (ip), vehicle: saline with Tween-80.
The mark [3] stands for this setting: dose: 200.0 mg/kg/injection, schedule: Q01DX009 (ip), vehicle: saline with Tween-80.

Turning to `C[CH2][Sn]([CH2]C)([O]c1cccccc1=O)[O]c1cccccc1=O`, the T/C was 116 % of control (dose: 100.0 mg/kg/injection, schedule: Q01DX001 (ip), vehicle: Klucel (hydroxypropylcellulose) (HPC)); 110 % of control (dose: 200.0 mg/kg/injection, schedule: Q01DX001 (ip), vehicle: Klucel (hydroxypropylcellulose) (HPC)); 110 % of control (dose: 400.0 mg/kg/injection, schedule: Q01DX001 (ip), vehicle: Klucel (hydroxypropylcellulose) (HPC)).

In the case of `CCCCCCCCCCCCCCC(O)c1ccccc1` (stereo unspecified), the T/C reads like this: (dose: 7.5 mg/kg/injection, schedule: Q01DX009 (ip), vehicle: Klucel (hydroxypropylcellulose) (HPC)) 113 % of control; (dose: 15.0 mg/kg/injection, schedule: Q01DX009 (ip), vehicle: Klucel (hydroxypropylcellulose) (HPC)) 115 % of control; (dose: 30.0 mg/kg/injection, schedule: Q01DX009 (ip), vehicle: Klucel (hydroxypropylcellulose) (HPC)) 110 % of control.

With `CCn1c(O)c(N=NC(=S)NC)c2ccccc21`, the T/C is 101 % of control (dose: 9.37 mg/kg/injection, schedule: Q01DX009 (ip), vehicle: saline with Tween-80); 104 % of control (dose: 18.75 mg/kg/injection, schedule: Q01DX009 (ip), vehicle: saline with Tween-80); 93 % of control (dose: 37.5 mg/kg/injection, schedule: Q01DX009 (ip), vehicle: saline with Tween-80).

Turning to `Cc1nn(C)c(NC(=O)c2ccccc2O)c1SC#N`, the T/C reads like this: (dose: 6.25 mg/kg/injection, schedule: Q01DX005 (ip), vehicle: saline with Tween-80) 93 % of control; (dose: 12.5 mg/kg/injection, schedule: Q01DX005 (ip), vehicle: saline with Tween-80) 93 % of control; (dose: 25.0 mg/kg/injection, schedule: Q01DX005 (ip), vehicle: saline with Tween-80) 93 % of control.

For the compound `COc1ccc(CC(C(=O)NN)S(=O)(=O)NC(C)(C)C)cc1OC` (stereo unspecified), the T/C runs as follows: (dose: 100.0 mg/kg/injection, schedule: Q04DX003 (ip), vehicle: Klucel (hydroxypropylcellulose) (HPC)) 98 % of control; (dose: 200.0 mg/kg/injection, schedule: Q04DX003 (ip), vehicle: Klucel (hydroxypropylcellulose) (HPC)) 98 % of control; (dose: 400.0 mg/kg/injection, schedule: Q04DX003 (ip), vehicle: Klucel (hydroxypropylcellulose) (HPC)) 95 % of control.

Regarding `Nc1c(CC(=O)O)cccc1C(=O)c1ccccc1`, the T/C was 87 % of control (dose: 50.0 mg/kg/injection, schedule: Q01DX009 (ip), vehicle: saline) and 92 % of control (dose: 100.0 mg/kg/injection, schedule: Q01DX009 (ip), vehicle: saline).

Turning to `CC(C)CCCCC(O)C1C(=O)OCC1CO` (stereo unspecified), the T/C was 101 % of control (dose: 7.25 mg/kg/injection, schedule: Q01DX005 (ip), vehicle: distilled water + alcohol); 104 % of control (dose: 14.5 mg/kg/injection, schedule: Q01DX005 (ip), vehicle: distilled water + alcohol); 111 % of control (dose: 29.0 mg/kg/injection, schedule: Q01DX005 (ip), vehicle: distilled water + alcohol); 105 % of control (dose: 58.0 mg/kg/injection, schedule: Q01DX005 (ip), vehicle: distilled water + alcohol).

Regarding `Ic1ccc2c(c1)N(c1ccccc1)c1cc(N=c3ccc4nc5ccc(I)cc5n(-c5ccccc5)c-4c3)ccc1N2`, the T/C was 96 % of control (dose: 100.0 mg/kg/injection, schedule: Q01DX009 (ip), vehicle: Klucel (hydroxypropylcellulose) (HPC)) and 89 % of control (dose: 200.0 mg/kg/injection, schedule: Q01DX009 (ip), vehicle: Klucel (hydroxypropylcellulose) (HPC)).

With `COc1ccc2[nH]c3cc4ccncc4cc3c2c1`, the T/C by setting is: (dose: 25.0 mg/kg/injection, schedule: Q04DX002 (ip), vehicle: saline with Tween-80) 122 % of control; (dose: 50.0 mg/kg/injection, schedule: Q04DX002 (ip), vehicle: saline with Tween-80) 97 % of control; (dose: 100.0 mg/kg/injection, schedule: Q04DX002 (ip), vehicle: saline with Tween-80) 95 % of control; (dose: 200.0 mg/kg/injection, schedule: Q04DX002 (ip), vehicle: saline with Tween-80) 97 % of control.

In the case of `C=CC(=NC(C)(C)C)Nc1cccc(Cl)c1`, the T/C (dose: 6.25 mg/kg/injection, schedule: Q04DX003 (ip), vehicle: saline) was 98 % of control; the T/C (dose: 12.5 mg/kg/injection, schedule: Q04DX003 (ip), vehicle: saline) is 102 % of control; the T/C (dose: 25.0 mg/kg/injection, schedule: Q04DX003 (ip), vehicle: saline) is 100 % of control.

For `OCC(O)C[S][Bi]([c]1ccccc1)[c]1ccccc1` (stereo unspecified), the T/C runs as follows: (dose: 60.0 mg/kg/injection, schedule: Q01DX005 (ip), vehicle: Klucel (hydroxypropylcellulose) (HPC)) 116 % of control; (dose: 120.0 mg/kg/injection, schedule: Q01DX005 (ip), vehicle: Klucel (hydroxypropylcellulose) (HPC)) 100 % of control.

Regarding `COC(=O)CC(NC(=O)C1CCCN1C(=O)C(F)(F)F)C(=O)OC` (stereo not drawn) (Tfa-Pro-Asp(OMe)-OMe; configuration not given here), the T/C was 104 % of control (dose: 100.0 mg/kg/injection, schedule: Q01DX001 (ip), vehicle: saline with Tween-80); 101 % of control and 100 % of control (dose: 200.0 mg/kg/injection, schedule: Q01DX001 (ip), vehicle: saline with Tween-80); 104 % of control (dose: 400.0 mg/kg/injection, schedule: Q01DX001 (ip), vehicle: saline with Tween-80).

`CCOCc1cnc(C)nc1N`: the T/C was 110 % of control under setting [1], 120 % of control under setting [2] and 110 % of control under setting [3].

On to `COC(=O)C1=CC[C@@H]2C(C(=O)O)=CO[C@@H](OC3OC(CO)C(O)C(O)C3O)[C@H]12` (stereo partly specified), for which the T/C (dose: 2.8 mg/kg/injection, schedule: Q01DX005 (ip), vehicle: saline + alcohol) was 101 % of control; the T/C (dose: 5.5 mg/kg/injection, schedule: Q01DX005 (ip), vehicle: saline + alcohol) is 99 % of control; the T/C (dose: 11.0 mg/kg/injection, schedule: Q01DX005 (ip), vehicle: saline + alcohol) was 108 % of control; the T/C (dose: 22.0 mg/kg/injection, schedule: Q01DX005 (ip), vehicle: saline + alcohol) was 100 % of control.

With `CCCCCCOC(=O)c1ccc(I)cc1`, the T/C is, setting by setting: under setting [1], 97 % of control; under setting [2], 93 % of control; under setting [3], 100 % of control.

Consider `Cc1cc[c]([Sn]([Cl])([O][Sn]([Cl])([c]2ccc(C)cc2)[c]2ccc(C)cc2)[c]2ccc(C)cc2)cc1`, for which the T/C (dose: 1.56 mg/kg/injection, schedule: Q01DX005 (ip), vehicle: Klucel (hydroxypropylcellulose) (HPC)) was 105 % of control; the T/C (dose: 3.12 mg/kg/injection, schedule: Q01DX005 (ip), vehicle: Klucel (hydroxypropylcellulose) (HPC)) is 96 % of control; the T/C (dose: 3.12 mg/kg/injection, schedule: Q01DX005 (ip), vehicle: saline) is 115 % of control; the T/C (dose: 6.25 mg/kg/injection, schedule: Q01DX005 (ip), vehicle: Klucel (hydroxypropylcellulose) (HPC)) was 94 % of control; the T/C (dose: 6.25 mg/kg/injection, schedule: Q01DX005 (ip), vehicle: saline) is 118 % of control; the T/C (dose: 12.5 mg/kg/injection, schedule: Q01DX005 (ip), vehicle: Klucel (hydroxypropylcellulose) (HPC)) is 99 % of control.

`COc1ccc(OC)c(Cc2cnc3nc(N)nc(N)c3c2C)c1`: the T/C was 113 % of control (dose: 10.0 mg/kg/injection, schedule: Q01DX005 (ip), vehicle: dextrose); 112 % of control (dose: 10.0 mg/kg/injection, schedule: Q01DX005 (ip), vehicle: water); 115 % of control (dose: 25.0 mg/kg/injection, schedule: Q04DX003 (ip), vehicle: dextrose); 170 % of control (dose: 40.0 mg/kg/injection, schedule: Q01DX005 (ip), vehicle: dextrose); 166 % of control (dose: 100.0 mg/kg/injection, schedule: Q04DX003 (ip), vehicle: dextrose).

As to `O=C1CC[C@@H](NC(=O)Cc2ccccc2)C(=O)N1`, the T/C by setting is: (dose: 7.5 mg/kg/injection, schedule: Q01DX005 (ip), vehicle: saline with Tween-80) 103 % of control; (dose: 15.0 mg/kg/injection, schedule: Q01DX005 (ip), vehicle: saline with Tween-80) 97 % of control; (dose: 30.0 mg/kg/injection, schedule: Q01DX005 (ip), vehicle: saline with Tween-80) 98 % of control and 101 % of control; (dose: 31.25 mg/kg/injection, schedule: Q01DX005 (ip), vehicle: saline with Tween-80) 102 % of control; (dose: 60.0 mg/kg/injection, schedule: Q01DX005 (ip), vehicle: saline with Tween-80) 94 % of control and 96 % of control; (dose: 62.5 mg/kg/injection, schedule: Q01DX005 (ip), vehicle: saline with Tween-80) 101 % of control. In addition, the T/C reads like this: (dose: 120.0 mg/kg/injection, schedule: Q01DX005 (ip), vehicle: saline with Tween-80) 88 % of control; (dose: 125.0 mg/kg/injection, schedule: Q01DX005 (ip), vehicle: saline with Tween-80) 99 % of control and 93 % of control; (dose: 250.0 mg/kg/injection, schedule: Q01DX005 (ip), vehicle: saline with Tween-80) 90 % of control; (dose: 500.0 mg/kg/injection, schedule: Q01DX005 (ip), vehicle: saline with Tween-80) 89 % of control.

The values are drawn from PubChem BioAssay AID330 (DTP/NCI, 2004).
